Results from paper PMC10385664, “Projection of Target Drug Particle Size in Oral Formulations Using the Refined Developability Classification System (rDCS)” (Pharmaceutics, 2023).
Values joined by “and” are separate entries in the source; they are usually repeats but may differ in a detail not shown here. Equal values may be shown once.

What was measured:
[1] = Conversion of Caco-2 Papp(A⟹B) to effective human permeability (Simcyp Papp–Peff correlation); settings: for estimated/predicted human Peff: estimated from Caco-2 permeability data; for Estimated human Peff: from Papp(A⟹B) without inhibitor, atenolol and propranolol as calibrators
Protocol: The Caco-2 Papp values were averaged. […] Estimated Peff values were used as input for the rDCS and rtarget calculations. […]
μM) to study transporter‐mediated efflux effects. In those experiments, elacridar was included in both compartments during the equilibration time and assay. The starting concentration (C0) was confirmed by […]
Details of the analytical standard method are presented in Ta ble S8. Measurements were performed in duplicate and reference […]
Papp values were averaged. To […]
permeability was monitored during the experiment using fluorimetric analysis. The pre‐defined lucifer […]
The built‐in literature Papp‐Peff […]
propranolol as calibrator substances was used. Estimated Peff values were used as input for the rDCS and rtarget calculations.
Table S8. Details of the LC‐MS/MS method for quantification of API concentrations in Caco‐2 permeability study […]
Acquity™ HSS T3 (1.8 μm) 2.1 x 30 mm (Waters Ltd, Herts, UK) fitted with Column SecurityGuard™ ULTRA Fully Porous Polar C18 cartridge (Phenomenex, […]
Mobile phase A 10 mM ammonium formate + 0.1 % v/v formic acid in water
Mobile phase B 100% Methanol
Gradient time profile 0.60 5 95

[2] = Powder dissolution method for estimating IDR in FaSSIF V1; assay type: physicochemical; settings: FaSSIF V1, 37 °C, 100 rpm
Protocol: Istradefylline disks could not be prepared because disk compression led to a change in solid state. The IDR of istradefylline was therefore measured (n = 4) according to a published powder dissolution method for estimating rotating disk IDRs. Istradefylline was weighed into an assay vial containing a magnetic crossbar stirrer, in an amount corresponding to approximately twice the amount needed to saturate the medium. The vials were placed in a heating block and 20 mL pre-heated FaSSIF V1 (37.0 ± 0.5 °C) was added to start the dissolution experiments. The medium was stirred at 100 rpm and concentrations were measured with in situ UV-spectroscopy using fiber optic dip probes until a plateau in the dissolution profile was reached. The vials were protected from light with aluminum foil during the entire experiment. […]
(§1) The concentration‐time curves for IDR determination were recorded with in situ UV‐spectroscopy using fiber optic dip probes. […] The buffer was stirred at 100 rpm and spectra were recorded approximately 1 minut e after addition of the stock solution. […]
(§2) Second derivatives of the UV spectra were used to establish the calibration curves. Multiple wavelength ranges were evaluated, and calibration curves were accepted for further investigation when linear […]

[3] = cited from earlier work
[4] = Disk intrinsic dissolution rate in FaSSIF V1 (µDISS Profiler); assay type: physicochemical; settings: FaSSIF V1, 37 °C, 100 rpm
Protocol: The experimental design was adapted from a standard experimental protocol published previously. Disks (n = 3) with a surface area of 0.0707 cm^2 were prepared by compressing the APIs into disk dies. For this, 5 to 10 mg of the API was compressed for 1 min at 50 bar using a Mini-IDR Tablet Compression System (Heath Scientific Co. Ltd., Milton Keynes, UK). Loose powder on the disk surface or die was removed with compressed air. […] With the disk surface facing upwards, the dies were placed into round-shaped magnetic stirrers and transferred into 20 mL assay vials. The vials were placed in a heating block and pre-heated FaSSIF V1 (10 mL) was added to each vial to start the dissolution experiments. The disks were rotated at 100 rpm and concentrations were measured in situ with UV-spectroscopy using fiber optic dip probes. Experiments were performed in triplicate.
S.2.6. rDCS Customized Investigations: Intrinsic dissolution rate
as §1, §2

## CCn1c(=O)c2c(nc(/C=C/c3ccc(OC)c(OC)c3)n2C)n(CC)c1=O [Istradefylline, istradefylline]
[1]
  estimated/predicted human Peff: 4.66 ×10⁻⁶ cm/s
  Estimated human Peff: 466 ×10⁻⁶ cm/s
[2]
  IDR FaSSIF V1 (powder dissolution method): 0.302 ± 0.010 µg/min/cm^2 and 0.302 ± 0.010 ^3 µg/min/cm^2

## Cc1ncc(OC[C@@]2(c3cccc(F)c3)C[C@H]2C(=O)Nc2ccc(F)cn2)c(C)n1 [Lemborexant, lemborexant]
[1]
  estimated/predicted human Peff: 4.2 ×10⁻⁶ cm/s
  Estimated human Peff: 420 ×10⁻⁶ cm/s
[3]
  solubility at pH 1.0: 1.6 mg/mL
[4]
  IDR FaSSIF V1 (disk dissolution method): 1.99 ± 0.09 µg/min/cm^2 and 1.99 ± 0.09 ^2 µg/min/cm^2

## C[C@@H](c1ncncc1F)[C@](O)(Cn1cncn1)c1ccc(F)cc1F [Voriconazole, voriconazole]
[4]
  IDR FaSSIF V1 (disk dissolution method): 84.8 ± 1.4 µg/min/cm^2 and 84.8 ± 1.4 ^2 µg/min/cm^2
